Results on nine compounds are retold here after patent US10316021B2, “Heteroarylphenoxy benzamide kappa opioid ligands” (Pfizer Inc., priority 2016, dated 2019).

SMILES strings stand for the structures. Like-named read-outs stand apart in the source and are kept apart here.

For one data set, the system named is CYP3A4. Briefly: Single point time dependent inhibition (SPTDI) assay. The data set is classed as in vitro ADME, human. On the procedure: Single Point Time Dependent Inhibition (SPTDI) Assay:
The objective of this study was to investigate the potential of a series of carboxamides to be time dependent inactivators of CYP3A isozymes, in vitro, using midazolam and testosterone as probe substrates for CYP 3A4/5 activity incubated with pooled human liver microsomes (HLM). Pooled HLMs (0.1-1.0 mg/ml) were pre-incubated with individual carboxamides at initial substrate concentrations of 6 or 10 μM in the presence and absence of NADPH (1.3 mM). Pre-incubations (n=2/compound) were performed for 30 min at 37° C. After pre-incubation, a 10-fold dilution of the incubate (0.02 ml) was added to the probe substrate incubate (0.18 ml) containing the respective probe P450 isozyme substrate (midazolam or testosterone for CYP3A, 1 uM), and was incubated at 37° C. The combined incubation reactions were terminated and analyzed for marker substrate activity (Ex: hydroxyl metabolite of midazolam and 6β hydroxy testesterone) as described previously (Walsky and Obach, 2004; Obach et al., 2007). Terminated incubation mixtures were filtered and analyzed by liquid chromatography (LC)-tandem mass spectrometry (MS/MS) for metabolites as described previously (Walsky and Obach, 2004). To determine kobs,app values, the decrease in natural logarithm of the activity over time was plotted for each inactivator concentration, and kobs,app values were described as the negative slopes of the lines. Inactivation kinetic parameters were determined using nonlinear regression of the data to the expression in eq. 1:
[formula] Statistical significance of kobs between solvent and test incubations was inferred using analysis performed by Yates et al. (Yates P, Eng H, Di L, Obach R S. Drug Metab Dispos 2012; 40:2289-96).
Irreversible inhibition, or time-dependent inhibition (TDI) of cytochrome P450s (CYPs) is generally characterized by an increase in enzyme inhibition with respect to time and inhibitor concentration (Grimm 2009). In cases where enzyme inhibition requires metabolic turnover, the mechanism generally involves the formation of a reactive inhibitory intermediate that may irreversibly inactivate CYPs; this mechanism could cause clinical drug-drug interactions due to inhibition of the relevant CYP responsible for metabolizing the victim drug (Grimm 2009; Rowland Yeo 2011). Hazard assessment for irreversible CYP450 inhibitory potential of CYP3A was performed for several compounds in Table 22 using the single point time dependent inhibition (SPTDI) assay, which measures the pseudo-first order rate constant of inactivation (kobs) at a single high concentration (6-10 μM) of a test compound (Zimmerlin 2011). Based on the analysis performed by Yates (2008), compounds showing a kobs of >0.008 min^−1 in this assay are considered to have a potential for TDI, and kobs<0.008 min^−1 are negative or may have a very weak potential for TDI at CYP3A4.

A further data set has as its system HepG2 cells. Description: HepG2_Glu ATP viability 72 hr. Particulars: for cytotoxicity in HepG2 cell line, in words: 72 hours, cellular ATP; for IC50: Homo sapiens, HepG2, glucose-supplemented media, ATP viability, 72 hour exposure, read-out: HepG2 Glu 72 hr. The format is cell-based, human. As for the experimental part: This assay was run in a similar manner to the assay as described in Marroquin et al. Toxicological Sciences 97(2), 539-547 (2007) with a modification such that the instant assay was run for a 72 hour period as described below.
The aim of this assay was to measure cytotoxicity of a compound by measuring cell viability. […] The reagent used to quantify the ATP present was Promega Cell Titer-Glo. This reagent works by catalyzing luciferin by luciferase in the presence of Mg^2+, ATP, and molecular oxygen, thus emitting a luminescent signal, which was proportional to the amount of ATP present in the sample.
HepG2 cells grown in glucose-supplemented media were plated in 384 well plates at a density of 1000 cells/well for the 72 hour assay in a total medium volume of 25 μl/well. Plates were then incubated for 24 hours at 37° C., 95% humidity, and 5% CO2 before compound dosing.
After 24 hours to allow cells to attach to the plate, HepG2 cells were exposed to test compounds in an 11-point dose response format with a […], ranging from 300 uM to 0.029 uM for 72 hours. All compounds were tested in triplicate. Following the 72 hour exposure to test compounds, cell viability was determined by measuring the concentration of cellular ATP by adding Promega Cell Titer-Glo according to the manufacturer's directions. The plates were then read on a […] plate reader and data is analyzed using ActivityBase software.

In data set [1] the target is T1, human mu opioid receptor (hMOR) (Homo sapiens, UniProt P35372).
T1 construct: expressed in transfected cells; host or cells: CHO cells
T1 sequence (P35372 whole entry): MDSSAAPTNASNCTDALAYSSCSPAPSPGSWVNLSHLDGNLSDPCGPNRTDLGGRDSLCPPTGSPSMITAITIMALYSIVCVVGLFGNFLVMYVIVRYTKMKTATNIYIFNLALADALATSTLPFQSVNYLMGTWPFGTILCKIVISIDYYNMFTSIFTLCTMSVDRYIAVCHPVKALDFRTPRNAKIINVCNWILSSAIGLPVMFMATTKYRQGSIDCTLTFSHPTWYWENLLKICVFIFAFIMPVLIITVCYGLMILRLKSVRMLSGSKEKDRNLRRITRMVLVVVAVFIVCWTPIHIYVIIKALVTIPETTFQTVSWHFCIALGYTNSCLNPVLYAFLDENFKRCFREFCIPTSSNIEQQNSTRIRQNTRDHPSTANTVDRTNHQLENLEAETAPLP
Briefly: Mu radioligand binding assay ([3H]diprenorphine, CHO cell membranes). Particulars: read-out: hMOR binding assay Ki. Summed up: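 Membranes from CHO cells expressing human mu receptor were incubated 1 h at room temperature with [3H]diprenorphine (0.5 nM final) in Tris pH 7.4 buffer with EDTA and MgCl2; naltrexone (10 μM) defined non-specific binding. Filter-bound radioactivity was counted; Ki derived by Cheng-Prusoff from IC50.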

For data set [2], the system named is isolated rat mitochondria. Description: Respirometric screening technology (RST) assay. The format is biochemical. Particulars: for RST inhibitory: inhibition of oxidative phosphorylation. On the procedure:
Respirometric Screening Technology (RST) Assay:
This assay was carried out substantially as described in Hynes et al. Toxicological Sciences 91(1), 186-200 (2006). More specifically, the assay conditions were similar to those described for the “Fluorescence-based assay of mitochondrial respiration” at page 188-189 of the Hynes reference.
Mitochondrial dysfunction has also been noted as a characteristic feature of many chronic illnesses, including bipolar disorder, Parkinson's disease, schizophrenia, depression, autism, and chronic fatigue syndrome (Morris 2015). Mitochondrial dysfunction can be assessed by measuring mitochondrial oxygen consumption in isolated rat mitochondria using luminescent oxygen-sensitive probes in a respirometric screening technology (RST) assay (Hynes 2006); both inhibition and uncoupling of oxidative phosphorylation in the RST assay were measured for compounds in Table 23.

The mark [3] stands for this setting: Table 19, geometric mean of 2-6 determinations unless otherwise indicated (Example 3: >=7).

`COc1nn(C)cc1[C@@H]1CCCN1Cc1ccc(Oc2ccc(C(N)=O)cc2)cc1` (single isomer, unassigned) [Example 12]: in the data set with CYP3A4, the “risk of time dependent inhibition (TDI) at CYP3A4, in words” value (“risk of time dependent inhibition (TDI)” for short) is reported as “low to no significant risk for TDI at CYP3A4”. Also, in the data set on CYP3A4 (listed as Compound 12), the “risk of time dependent inhibition (TDI)” value is given as “not time dependent inactivators of CYP3A4”. The “SPTDI CYP3A4 kobs” value with CYP3A4 (single high dose of 10 μM) came out at 0.0042 min⁻¹. In the data set on HepG2 cells, the “cytotoxicity in HepG2 cell line, in words” value (shortened to “cytotoxicity”) was “little to no cytotoxicity” and the IC50 is more than 300000 nM. For the same compound, the Ki in data set [1] (setting [3]) was 46.2 nM. In addition, in data set [1] (Table 20, radioligand binding), the Ki came out at 46 nM. Further, in data set [2], the “activity in the RST assay (inhibition / uncoupling of oxidative phosphorylation), in words” value is recorded as “no significant activity” and the RST inhibitory entry is recorded as “No effect”.
Consider `COc1nn(C)cc1C1CCCN1Cc1ccc(Oc2ccc(C(N)=O)cc2F)cc1` (single isomer, unassigned; (-)) [Example 8, (−)-3-Fluoro-4-(4-{[2-(3-methoxy-1-methyl-1H-pyrazol-4-yl)pyrrolidin-1-yl]methyl}phenoxy)benzamide], for which, in the data set on CYP3A4, the “risk of time dependent inhibition (TDI)” value is given as “low to no significant risk for TDI at CYP3A4”. Besides, the “risk of time dependent inhibition (TDI)” value with CYP3A4 (listed as Compound 8) is “not time dependent inactivators of CYP3A4”. Besides, the “SPTDI CYP3A4 kobs” value in the data set on CYP3A4 (single high dose of 10 μM) turned out to be 0.0044 min⁻¹. For the same compound, in the data set on HepG2 cells, the “cytotoxicity” value is “little to no cytotoxicity” and the IC50 is more than 300000 nM. For the same compound, the Ki in data set [1] (setting [3]) was 98.7 nM. The Ki in data set [1] (Table 20, radioligand binding) amounted to 99 nM. In data set [2], the “activity in the RST assay (inhibition / uncoupling of oxidative phosphorylation), in words” value was “no significant activity” and the RST inhibitory result is “No effect”.
For the compound `NC(=O)c1ccc(Oc2ccc(CN3CCC(c4ccccc4)C3)cc2)nc1` (stereo not shown) [Comparator A, reference compound], the IC50 in the data set on HepG2 cells came to 174000 nM. Also, the Ki in data set [1] (Table 20, radioligand binding) is 0.1 nM.
Consider `NC(=O)c1ccc(Oc2ccc(CN3CCCCC3c3ccccc3)cc2)nc1` (stereo not shown) [Comparator B], for which the “SPTDI CYP3A4 kobs” value with CYP3A4 (single high dose of 10 μM) is 0.0041 min⁻¹. The IC50 with HepG2 cells is 112000 nM. Moreover, the RST inhibitory entry in data set [2] is “No effect”.
`NC(=O)c1ccc(Oc2ccc(CN3CCCC3c3cccnc3)cc2)c(Cl)c1` (stereo not shown) [Comparator C]: in the data set with HepG2 cells, the IC50 was found to be 72000 nM. For the same compound, the Ki in data set [1] (Table 20, radioligand binding) is 21 nM. Moreover, in data set [2], the “activity in the RST assay (inhibition / uncoupling of oxidative phosphorylation), in words” value is given as “μM inhibitory activity” and the RST inhibitory is 21 µM.
Regarding `NC(=O)c1ccc(Oc2ccc(CN3CCCC3c3ccccc3)cc2)nc1` (stereo not shown) [Comparator D], the “SPTDI CYP3A4 kobs” value in the data set on CYP3A4 (single high dose of 10 μM) stood at 0.0065 min⁻¹. In addition, the IC50 in the data set with HepG2 cells is 69000 nM. In data set [1] (Table 20, radioligand binding), the inhibition constant Ki came to 163 nM. Further, the RST inhibitory result in data set [2] is listed as “No effect”.
For `Cc1cc(C)cc([C@@H]2CCCN2Cc2ccc(Oc3ccc(C(N)=O)cc3F)cc2)c1` [Comparator E, reference compound], the “risk of time dependent inhibition (TDI)” value with CYP3A4 was “potential risk of CYP3A4 TDI”. The “SPTDI CYP3A4 kobs” value in the data set on CYP3A4 (single dose of 6 μM) is on record as 0.0113^2 min−1. In the data set on CYP3A4 (tested at 6 μM), the “SPTDI kobs at CYP3A4” value is 0.011 min⁻¹. Also, in the data set on HepG2 cells, the “cytotoxicity” value is given as “cytotoxicity at lower concentrations” and the IC50 came out at 43000 nM. The Ki in data set [1] (Table 20, radioligand binding) turned out to be 7.8 nM. Besides, in data set [2], the “activity in the RST assay (inhibition / uncoupling of oxidative phosphorylation), in words” value is given as “μM inhibitory activity” and the RST inhibitory is 19 µM.
Regarding `NC(=O)c1ccc(Oc2ccc(CN3CCC[C@H]3c3cccc(F)c3)cc2)c(F)c1` [Comparator F], the “risk of time dependent inhibition (TDI)” value with CYP3A4 is “potential risk of CYP3A4 TDI”. For the same compound, the “SPTDI CYP3A4 kobs” value with CYP3A4 (single high dose of 10 μM) was 0.0133 min⁻¹. Moreover, in the data set on CYP3A4 (tested at 10 μM), the “SPTDI kobs at CYP3A4” value amounted to 0.0133 min⁻¹. In the data set on HepG2 cells, the “cytotoxicity” value is reported as “cytotoxicity at lower concentrations” and the IC50 came to 56000 nM. Besides, the Ki in data set [1] (Table 20, radioligand binding) was found to be 37.5 nM. The compound also gave an RST inhibitory in data set [2] of 66 µM.
As to `Cc1nn(C)cc1[C@@H]1CCCN1Cc1ccc(Oc2ccc(C(N)=O)cc2)cc1` [Example 11, 4-(4-{[(2S)-2-(1,3-Dimethyl-1H-pyrazol-4-yl)pyrrolidin-1-yl]methyl}phenoxy)benzamide], the “risk of time dependent inhibition (TDI)” value with CYP3A4 is on record as “low to no significant risk for TDI at CYP3A4”. Also, the “risk of time dependent inhibition (TDI)” value with CYP3A4 (listed as Compound 11) is given as “not time dependent inactivators of CYP3A4”. For the same compound, in the data set on CYP3A4 (single high dose of 10 μM), the “SPTDI CYP3A4 kobs” value amounted to 0.0055 min⁻¹. Also, in the data set on HepG2 cells, the “cytotoxicity” value was “little to no cytotoxicity” and the IC50 was 267000 nM. Further, the Ki in data set [1] (setting [3]) was 51 nM. The Ki in data set [1] (Table 20, radioligand binding) stood at 51 nM. In addition, in data set [2], the “activity in the RST assay (inhibition / uncoupling of oxidative phosphorylation), in words” value is “no significant activity” and the RST inhibitory result is reported as “No effect”.
